Source: patent EP3283473B1, “GHRELIN O-ACYL TRANSFERASE INHIBITORS” (Eli Lilly and Company, priority 2015, dated 2016)

Target: T1, human GOAT (Homo sapiens, UniProt Q96T53)
T1 construct: His; made in house; host or cells: Sf9 insect cells (baculovirus, pAN51 vector); microsomal membrane preparation
T1 sequence (Q96T53 1-435): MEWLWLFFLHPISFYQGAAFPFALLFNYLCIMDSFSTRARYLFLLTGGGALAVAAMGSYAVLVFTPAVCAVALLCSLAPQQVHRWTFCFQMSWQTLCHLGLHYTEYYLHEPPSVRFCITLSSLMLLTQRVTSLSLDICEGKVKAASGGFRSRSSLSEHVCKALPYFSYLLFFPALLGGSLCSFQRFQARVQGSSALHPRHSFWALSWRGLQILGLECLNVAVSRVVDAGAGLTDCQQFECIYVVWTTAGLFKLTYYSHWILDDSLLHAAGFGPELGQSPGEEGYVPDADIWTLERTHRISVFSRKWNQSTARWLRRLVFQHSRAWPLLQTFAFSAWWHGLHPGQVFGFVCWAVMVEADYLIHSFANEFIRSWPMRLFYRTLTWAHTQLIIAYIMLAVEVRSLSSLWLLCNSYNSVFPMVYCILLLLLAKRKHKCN
Assay: In vitro cell free human GOAT enzymatic assay
Type: biochemical
Details: GOAT-His/sf9 membrane preparation
Experimental: Human GOAT gene (Accession number: NM_001100916) is subcloned to pAN51 baculoviral expression vector. Baculovirus stock is prepared following the Bac-to-Bac Protocol provided by the vendor, Invitrogen, California, USA. Five mililiters of human GOAT baculoviral stock are added to 500 mL Sf9 cells in HyQ SFX-Insect™ media (HyClone catalog number SH30278.02) at the density of 1 × 10^6 cells per milliliter in a 2 L Erlenmeyer flask. The flask with human GOAT gene infected Sf9 cells is put on a plate shaker at 120 rpm at 28 °C for 48 hours. After 48 hours incubation, cells are centrifuged at 1,000xg for 10 min at 4 °C. The cell pellets are collected and stored at -80 °C in a freezer until ready for further processing.
One gram cell pellets are suspended in 9 mL chilled homogenization buffer (50 mM Tris-HCl, 250 mM sucrose, adjusted to pH 7.5 and sterile filtered through 0.2 µm Millipore filter). The cell suspension is transferred to a Dounce glass homogenizer. Cell pellets are homogenized with 40 strokes on ice. The homogenate is centrifuged at 3,000 rpm in a Beckman swing bucket rotor at 4 °C for 10 min to remove unbroken cells. The supernatant is collected and centrifuged at 40,000 xg for 1 hour at 4 °C. The resulting membrane pellet is suspended in the homogenization buffer using a Dounce glass homogenizer and stored at -20 °C in the freezer for the assay. For long term storage of the human GOAT enzyme membrane preparation, the suspended membrane is stored in a -80 °C freezer.
Prepare test compounds in DMSO to make up a 0.2 mM stock solution. Serially dilute the stock solution in DMSO to obtain a ten-point dilution curve with final compound concentrations ranging from 10 µM to 0.5 nM in a 96-well round-bottom plate. Prepare enzyme and substrate solutions in assay buffer (0.02% TWEEN™-20 in 50 mM Tris, pH 7.5/250 mM sucrose/1 mg/mL BSA/10 mM EDTA). Add diluted compound (1 µL) to each well of row A to N of a corresponding low protein binding 384 well plate. Add human GOAT substrate mix (10 µL), consisting of human desacyl-ghrelin-biotin (CPC Scientific Inc., 6.0 µM final), octanoyl-coenzyme A (CoA) (Sigma, 60 µM final) and an AG specific antibody (WO 2006/091381)(1.0 µg/mL final), to the compounds. Add GOAT-His/sf9 enzyme preparation, that has been prepared in assay buffer (9 µL), to each well of the plate containing substrate and test compounds resulting in a final concentration of 0.01 µg/mL to initiate the reaction. Incubate the mixture for 1 hour at RT on a gently rotating oscillator. Add 4M guanidine hydrochloride (20 µL) to all wells, mix, and incubate for 3 hours to stop the reaction.
Prepare ELISA plates (STREPTAVIDIN SPECTRAPLATE™ 384, Perkin Elmer) by blocking with 2% Heat-Inactivated FBS in PBS (40 µL) (Invitrogen) blocking buffer for 3 hours. Aspirate the blocking buffer from ELISA plate and add blocking buffer (23 µL) to columns 1-24, rows A-N. Reserve rows O and P for the acylghrelin standard curve. Add the reaction mix (2 µL) to the ELISA plates. Prepare a 10 point standard curve (biotin-labeled octanoyl-ghrelin) by serial 2X dilution in blocking buffer containing 0.2M Guanidine hydrochloride starting at 2.5 pM. Incubate the reaction mixture or biotin-labeled AG standard in the ELISA plate overnight at 4 °C. The following day, wash the plate 3× with wash buffer (0.1% TWEEN™-20/PBS, 100 µL per well in each wash cycle). […] Read plates at 450 nm using an ENVISION® Multilabel plate reader. […]

Compound: Cc1nc(C(F)(F)F)nc(N)c1CCC1CCN(C(=O)[C@H](C)NC(=O)c2ccnn2C)CC1 [Example 2, N-[(1S)-2-[4-[2-[4-Amino-6-methyl-2-(trifluoromethyl)pyrimidin-5-yl]ethyl]-1-piperidyl]-1-methyl-2-oxo-ethyl]-2-methyl-pyrazole-3-carboxamide]
- IC20: 69.5 ± 0.6 nM
